Key:
Assay type in all cases: biochemical
Jak2 = target: T1, Jak2 (Homo sapiens, UniProt O60674); experiment: JAK2 kinase domain assay (ELISA or Alphascreen); conditions: capacity to inhibit 50% of activity at 50 μM; read-out: Jak2 inhibitory activity
T1 construct: The kinase domain of humanJAK2 was amplified from U937mRNA; His tag (from pFastBac HTc vector) (N); made in house; host or cells: baculovirus; Sf9 insect cells for virus, High Five cells for large-scale production
Method: (§1) For screening purposes, compounds were diluted in 96 well plates at a concentration of 20 μM. Plates were warmed at 37° C. for 30 minutes before assay.
(§2) • JAK1 PCR products were cloned into the pFastBac HTb expression vector (Gibco) via the Xho I and Kpn I sites. The JAK1 plasmid was then transformed into competent DH10Bac cells (Gibco), and the recombinant baculovirus produced prepared for transfection into Sf9 insect cells. JAK2 • The kinase domain of humanJAK2 was amplified from U937mRNA using the polymerase chain reaction with the following primers:
• JAK2 PCR products were cloned into the pFastBac HTc expression vector (Gibco) via the Sal I and Not I sites. The JAK2 plasmid was then transformed into competent DH10Bac cells (Gibco), and the recombinant baculovirus produced prepared for transfection into Sf9 insect cells. JAK3 • The kinase domain of humanJAK3 was amplified from U937mRNA using the polymerase chain reaction with the following primers: […]
(§3) Baculovirus preparations from each of the JAK family members were infected into five litres of High Five cells (Invitrogen) grown in High Five serum free medium (Invitrogen) to a cell density of approximately 1-2×10^6 cells/ml. Cells are infected with virus at a MOI of 0.8-3.0. Cells were harvested and lysed. JAK kinase domains were purified by affinity chromatography on a Probond (Invitrogen) nickel chelate affinity column.
(§4) Kinase assays were performed either in a 96 well capture-based ELISA assay or in 384 well Optiplates (Packard) using an Alphascreen Protein Tyrosine Kinase kit. In either casse using approximately 1.5 μg of affinity purified PTK domain in the presence of 50 mM HEPES, pH 7.5, 10 mM MgCl2, 150 mM NaCl and 10 μM-1 mM ATP. The biotinylated substrate biotin-EGPWLEEEEEAYGWMDF-NH2 (SEQ ID NO:9) (final concentration 5 μM) was used as substrate. In the ELISA assay tyrosine phosphorylation was quantitated following transfer to an avidin coated ELISA plate using peroxidase-linked anti-phospho-tyrosine antibody PY20. In the Alphascreen assay, Alphascreen phosphotyrosine acceptor beads followed by streptavidin donor beads were added under subdued light. The ELISA plates were read on a BMG Fluorostar, the Alphascreen plates were read on a Packard Fusion Alpha. Inhibitors were added to the assays fifteen minutes prior to the addition of ATP. Inhibitors were added in aqueous DMSO, with DMSO concentrations never exceeding 1%.

Jak3 = target: T2, Jak3 (Homo sapiens, UniProt P52333); experiment: JAK3 kinase domain assay (ELISA or Alphascreen); conditions: capacity to inhibit 50% of activity at 50 μM; read-out: Jak3 inhibitory activity
T2 construct: The kinase domain of humanJAK3 was amplified from U937mRNA; His tag (from pFastBac HTb vector) (N); made in house; host or cells: baculovirus; Sf9 insect cells for virus, High Five cells for large-scale production
T2 sequence (P52333 822-1111 limits assumed): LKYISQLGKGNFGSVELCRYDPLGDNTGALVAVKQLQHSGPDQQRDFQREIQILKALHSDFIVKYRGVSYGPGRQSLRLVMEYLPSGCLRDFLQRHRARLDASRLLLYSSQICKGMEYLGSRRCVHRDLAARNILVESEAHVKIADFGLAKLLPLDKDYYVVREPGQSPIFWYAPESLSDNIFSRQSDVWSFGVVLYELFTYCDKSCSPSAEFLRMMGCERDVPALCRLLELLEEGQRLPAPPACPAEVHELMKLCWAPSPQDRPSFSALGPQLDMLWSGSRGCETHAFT
Method: as §1
• JAK2 PCR products were cloned into the pFastBac HTc expression vector (Gibco) via the Sal I and Not I sites. The JAK2 plasmid was then transformed into competent DH10Bac cells (Gibco), and the recombinant baculovirus produced prepared for transfection into Sf9 insect cells. JAK3 • The kinase domain of humanJAK3 was amplified from U937mRNA using the polymerase chain reaction with the following primers:
as §2, with “JAK3” for “JAK1”, “TYK2” for “JAK2”, “humanTYK2” for “humanJAK2”, “A549 mRNA” for “U937mRNA”, “primers: […]” for “primers:”
as §3, §4

abl = target: T3, abl (Homo sapiens, UniProt P00519); experiment: abl kinase assay (ELISA or Alphascreen); conditions: capacity to inhibit 50% of activity at 50 μM; read-out: abl inhibitory activity
T3 sequence (P00519 242-493 limits assumed): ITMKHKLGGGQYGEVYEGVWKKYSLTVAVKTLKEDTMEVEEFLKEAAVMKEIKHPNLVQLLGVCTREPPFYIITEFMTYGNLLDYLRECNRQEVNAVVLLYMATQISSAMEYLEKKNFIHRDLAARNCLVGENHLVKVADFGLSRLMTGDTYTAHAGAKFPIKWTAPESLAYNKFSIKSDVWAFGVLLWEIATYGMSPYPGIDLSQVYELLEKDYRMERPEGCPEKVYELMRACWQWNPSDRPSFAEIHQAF
Method: as §1, §4

hck = hck (Homo sapiens, UniProt P08631); experiment: hck kinase assay (ELISA or Alphascreen); conditions: capacity to inhibit 50% of activity at 50 μM; read-out: hck inhibitory activity
Sequence of hck (P08631 262-515 limits assumed, species assumed): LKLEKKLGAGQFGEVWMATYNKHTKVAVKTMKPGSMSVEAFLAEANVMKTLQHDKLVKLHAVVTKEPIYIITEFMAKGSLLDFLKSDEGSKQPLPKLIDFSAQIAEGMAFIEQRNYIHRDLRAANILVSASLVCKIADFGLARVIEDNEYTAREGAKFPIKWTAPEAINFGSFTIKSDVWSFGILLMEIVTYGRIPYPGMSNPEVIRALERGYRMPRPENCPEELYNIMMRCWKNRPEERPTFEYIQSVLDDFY
Method: as §1, §4

kdr = kdr (Homo sapiens, UniProt P35968); experiment: kdr kinase assay (ELISA or Alphascreen); conditions: capacity to inhibit 50% of activity at 50 μM; read-out: kdr inhibitory activity
Sequence of kdr (P35968 834-1162 limits assumed, species assumed): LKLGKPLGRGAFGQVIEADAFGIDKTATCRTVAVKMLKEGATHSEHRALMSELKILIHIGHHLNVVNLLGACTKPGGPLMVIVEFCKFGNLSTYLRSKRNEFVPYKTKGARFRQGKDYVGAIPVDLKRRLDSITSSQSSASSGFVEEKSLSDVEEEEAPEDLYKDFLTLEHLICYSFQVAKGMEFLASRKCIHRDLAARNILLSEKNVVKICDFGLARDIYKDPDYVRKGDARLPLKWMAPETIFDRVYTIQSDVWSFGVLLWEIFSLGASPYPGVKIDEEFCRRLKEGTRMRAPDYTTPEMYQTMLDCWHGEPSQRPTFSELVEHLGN
Method: as §1, §4

T1 sequence (O60674 849-1124 limits assumed): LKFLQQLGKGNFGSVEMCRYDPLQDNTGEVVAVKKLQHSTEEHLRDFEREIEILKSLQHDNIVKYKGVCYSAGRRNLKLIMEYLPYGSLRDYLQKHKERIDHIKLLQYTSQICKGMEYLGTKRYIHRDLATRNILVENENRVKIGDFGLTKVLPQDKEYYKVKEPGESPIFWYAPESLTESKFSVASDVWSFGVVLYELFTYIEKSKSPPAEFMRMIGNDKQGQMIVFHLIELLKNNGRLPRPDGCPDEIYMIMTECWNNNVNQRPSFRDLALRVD

inhibition at 50 µM (Jak2)	inhibition at 50 µM (Jak3)	inhibition at 50 µM (abl)	inhibition at 50 µM (hck)	inhibition at 50 µM (kdr)	Structure (SMILES)
< 50%	> 50%	< 50%	> 50%	< 50%	Fc1ccc(CNc2cncc(-n3ccnc3)n2)cc1
< 50%	< 50%	> 50%	> 50%	< 50%	C[C@@H](Nc1cncc(-n2ccnc2)n1)c1ccccc1
< 50%	< 50%	> 50%		> 50%	COc1ccc([C@H](C)Nc2cncc(-n3cnc4ccccc43)n2)cc1
< 50%	< 50%	> 50%		> 50%	C[C@H](Nc1cncc(-n2cnc3ccccc32)n1)c1ccc(Br)cc1
> 50%	< 50%	> 50%	> 50%	> 50%	C[C@H](Nc1cncc(-n2cnc3ccc(NS(C)(=O)=O)cc32)n1)c1ccccc1
> 50%	< 50%	> 50%	> 50%	> 50%	C[C@H](Nc1cncc(-n2cnc3cc(NS(C)(=O)=O)ccc32)n1)c1ccccc1
< 50%	< 50%	< 50%	> 50%	> 50%	c1ccc2c(c1)ncn2-c1cncc(Nc2ccc(N3CCOCC3)cc2)n1
< 50%	> 50%	< 50%	> 50%	< 50%	Cc1nccn1-c1cncc(NCc2ccc(F)cc2)n1
< 50%	< 50%	> 50%	> 50%	< 50%	C[C@H](Nc1cncc(-n2ccnc2)n1)c1ccccc1
> 50%	< 50%	> 50%	> 50%	> 50%	C[C@H](Nc1cncc(-n2cnc3ccccc32)n1)c1ccccc1
< 50%	< 50%	< 50%	< 50%	< 50%	Cc1nc2ccccc2n1-c1cncc(N[C@@H](C)c2ccccc2)n1
> 50%	< 50%	> 50%	> 50%	> 50%	Cc1ccc2c(c1)ncn2-c1cncc(N[C@@H](C)c2ccccc2)n1
< 50%	< 50%	< 50%	> 50%	< 50%	C[C@H](Nc1cncc(-n2cnc3ccc(C(=O)N4CCN(C)CC4)cc32)n1)c1ccccc1
< 50%	< 50%	> 50%	> 50%	> 50%	C[C@H](Nc1cncc(-n2cnc3cc(C(=O)N4CCN(C)CC4)ccc32)n1)c1ccccc1
< 50%	< 50%	> 50%	> 50%	> 50%	C[C@H](Nc1cncc(-n2cnc3cc(NC(=O)c4ccncc4)ccc32)n1)c1ccccc1
> 50%	< 50%	> 50%	< 50%	> 50%	C[C@H](Nc1cncc(-n2cnc3ccc(NC(=O)c4ccncc4)cc32)n1)c1ccccc1
< 50%	< 50%	> 50%	> 50%	> 50%	C[C@H](Nc1cncc(-n2cnc3cc(C4=NCCO4)ccc32)n1)c1ccccc1
> 50%	> 50%	> 50%	> 50%	> 50%	C[C@H](Nc1cncc(-n2cnc3ccc(C(=O)NCCO)cc32)n1)c1ccccc1
> 50%	< 50%	> 50%	> 50%	> 50%	CNC(=O)c1ccc2c(c1)ncn2-c1cncc(N[C@@H](C)c2ccccc2)n1
> 50%	> 50%	> 50%	> 50%	> 50%	CNC(=O)c1ccc2ncn(-c3cncc(N[C@@H](C)c4ccccc4)n3)c2c1
> 50%	< 50%	> 50%	> 50%	> 50%	C[C@H](Nc1cncc(-n2cnc3ccc(N)cc32)n1)c1ccccc1
> 50%	< 50%	> 50%	> 50%	> 50%	C[C@H](Nc1cncc(-n2cnc3cc(N)ccc32)n1)c1ccccc1
< 50%	< 50%	> 50%	> 50%	> 50%	C[C@H](Nc1cncc(-n2cnc3cc(C(=O)NCc4ccccc4)ccc32)n1)c1ccccc1
< 50%	< 50%	> 50%	> 50%	< 50%	C[C@H](Nc1cncc(-n2cnc3cc(C(=O)Nc4ccccc4)ccc32)n1)c1ccccc1
> 50%	< 50%	> 50%	> 50%	> 50%	C[C@H](Nc1cncc(-n2cnc3ccc(NC(=O)c4cccnc4)cc32)n1)c1ccccc1
> 50%	> 50%	> 50%	> 50%	> 50%	C[C@H](Nc1cncc(-n2cnc3ccc(NC(=O)C(C)(C)C)cc32)n1)c1ccccc1
> 50%	> 50%	> 50%	> 50%	> 50%	C[C@H](Nc1cncc(-n2cnc3cc(NC(=O)C(C)(C)C)ccc32)n1)c1ccccc1
< 50%	< 50%	> 50%	> 50%	> 50%	COCC(=O)Nc1ccc2c(c1)ncn2-c1cncc(N[C@@H](C)c2ccccc2)n1
> 50%	< 50%	> 50%	> 50%	> 50%	COCC(=O)Nc1ccc2ncn(-c3cncc(N[C@@H](C)c4ccccc4)n3)c2c1
> 50%	< 50%	> 50%	> 50%	> 50%	CC(=O)Nc1ccc2ncn(-c3cncc(N[C@@H](C)c4ccccc4)n3)c2c1

Source: patent US7511047B2, “Kinase inhibitors” (Cytopia Research Pty Ltd, priority 2002, dated 2009)
